From US9855270B2, “Methods and compositions for modulating estrogen receptor mutants” (priority 2014, dated 2018)
Read-outs that look alike come from different tables or passages of the source.

Legend:
wild-type ER-α = target: T1, wild-type ER-α (Homo sapiens, UniProt P03372)
T1 sequence (P03372 1-595): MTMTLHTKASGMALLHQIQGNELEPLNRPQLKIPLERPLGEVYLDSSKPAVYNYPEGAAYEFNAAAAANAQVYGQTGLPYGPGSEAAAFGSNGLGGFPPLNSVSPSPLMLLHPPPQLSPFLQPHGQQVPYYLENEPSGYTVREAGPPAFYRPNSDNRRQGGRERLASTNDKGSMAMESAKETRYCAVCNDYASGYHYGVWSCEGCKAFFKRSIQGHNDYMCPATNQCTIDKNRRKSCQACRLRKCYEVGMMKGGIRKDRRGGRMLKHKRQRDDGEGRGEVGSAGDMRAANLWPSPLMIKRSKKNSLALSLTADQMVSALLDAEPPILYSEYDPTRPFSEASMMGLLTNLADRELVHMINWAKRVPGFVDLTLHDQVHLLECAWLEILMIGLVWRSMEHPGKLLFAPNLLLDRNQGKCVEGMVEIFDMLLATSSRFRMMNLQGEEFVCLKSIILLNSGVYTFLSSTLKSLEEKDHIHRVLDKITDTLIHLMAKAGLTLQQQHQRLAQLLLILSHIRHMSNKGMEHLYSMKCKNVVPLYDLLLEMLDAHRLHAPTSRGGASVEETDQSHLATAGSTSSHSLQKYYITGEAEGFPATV

[1] = system: MCF-7 cells stably expressing UbC HA-ER-α Y537N; experiment: cells; format: cell-based; details: UbC HA-ER-α Y537N; for EC50: Homo sapiens, MCF7, read-out: Potency (EC50; nM); for Percent inhibition compared to vehicle: 5-Day Incubation; for Efficacy (Emax): Day 5 relative to Day 0
Procedure, shortened: (§1)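 Lentivirally transduced MCF-7 (HA-ER-α WT/mutant under EF1 or UbC; empty vector control); phenol-free RPMI + 10% CSS; 10-pt 1:5 dilution, 10 μM–5 pM final; 5 d; CellTiter-Glo; (RLU − background)/RLU T0.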

[2] = system: MCF-7 cells stably expressing EF1 HA-ER-α L536R; experiment: cells; format: cell-based; details: EF1 HA-ER-α L536R; for Percent inhibition compared to vehicle: 5-Day Incubation; for Efficacy (Emax): Day 5 relative to Day 0; for EC50: Homo sapiens, MCF7, read-out: Potency (EC50; nM)
Procedure, shortened: (§2)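 MCF-7 lines stably expressing N-terminal HA-tagged wild-type or mutant ER-α, under a high-expressing EF1 or a low-to-moderate UbC promoter, plus an empty-vector control, grown in phenol-free RPMI with 10% CSS. Compound given at 10 μM to 5 pM final for 5 days. CellTiter-Glo luminescence minus background, divided by the time-zero reading, gave relative proliferation.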

[3] = system: MCF-7 cells stably expressing UbC HA-ER-α L536P; experiment: cells; format: cell-based; details: for EC50: Homo sapiens, MCF7, read-out: Potency (EC50; nM)
Procedure, shortened: as §1

[4] = system: MCF-7 cells stably expressing EF1 HA-ER-α E380Q; experiment: cells; format: cell-based; details: EF1 HA-ER-α E380Q; for Percent inhibition compared to vehicle: 5-Day Incubation; for Efficacy (Emax): Day 5 relative to Day 0; for EC50: Homo sapiens, MCF7, read-out: Potency (EC50; nM)
Procedure, shortened: as §1

[5] = system: MCF-7 cells stably expressing UbC HA-ER-α E380Q; experiment: cells; format: cell-based; details: UbC HA-ER-α E380Q; for EC50: Homo sapiens, MCF7, read-out: Potency (EC50; nM); for Percent inhibition compared to vehicle: 5-Day Incubation; for Efficacy (Emax): Day 5 relative to Day 0
Procedure, shortened: as §2

[6] = Agonist Mode, −E2, relative to vehicle treated wild-type ER-α
[7] = Antagonist Mode, +E2, relative to vehicle treated wild-type ER-α
[8] = Antagonist Mode, −E2 (Table 27)
[9] = Agonist Mode, −E2, 5-Day Incubation
[10] = Agonist Mode, −E2, Day 5 relative to Day 0
[11] = Antagonist Mode, +E2, 5-Day Incubation
[12] = Antagonist Mode, +E2, Day 5 relative to Day 0

SMILES | Efficacy (Emax) (wild-type ER-α; [6]) | Efficacy (Emax) (wild-type ER-α; [7]) | EC50 ([1]; Agonist Mode, −E2) [nM] | EC50 ([1]; Antagonist Mode, +E2) [nM] | Percent inhibition compared to vehicle ([1]; Agonist Mode, −E2) [%] | Efficacy (Emax) ([1]; Agonist Mode, −E2) | Percent inhibition compared to vehicle ([1]; Antagonist Mode, +E2) [%] | Efficacy (Emax) ([1]; Antagonist Mode, +E2) | Percent inhibition compared to vehicle ([2]; Agonist Mode, −E2) [%] | Efficacy (Emax) ([2]; Agonist Mode, −E2) | Percent inhibition compared to vehicle ([2]; Antagonist Mode, +E2) [%] | Efficacy (Emax) ([2]; Antagonist Mode, +E2) | EC50 ([2]; Antagonist Mode, +E2) [nM] | Efficacy (Emax) [3, 10] | Efficacy (Emax) [3, 12] | EC50 ([3]; Agonist Mode, −E2) [nM] | Efficacy (Emax) ([4]; Antagonist Mode, +E2) | EC50 ([5]; Agonist Mode, −E2) [nM] | Efficacy (Emax) ([5]; Agonist Mode, −E2) | Efficacy (Emax) ([5]; Antagonist Mode, +E2) | other results
C[C@]12CC[C@@H]3c4ccc(O)cc4C[C@@H](CCCCCCCCC[S+]([O-])CCCC(F)(F)C(F)(F)F)[C@H]3[C@@H]1CC[C@@H]2O (stereo partly shown) [Fulvestrant] | 0.15 ± 0.09 | 0.06 ± 0.08 | 0.355 ± 0.163 | 1.77 ± 0.387 | 63 | 1.61 ± 0.15 | 77 | 1.49 ± 0.00 | 42 | 3.95 ± 0.36 | 48 | 3.53 ± 0.28 | 35 ± 2.77 | 1.66 ± 0.11 | 1.73 ± 0.08 | 0.298 ± 0.132 | 2.21 ± 0.12 | 0.248 ± 0.094 | 1.70 ± 0.30 | 1.70 ± 0.32 | EC50 ([2]; Agonist Mode, −E2): 6.29 ± 1.13 nM; EC50 [2, 8]: 6.29 ± 1.13 nM; Percent inhibition compared to vehicle [3, 9]: 47%; Percent inhibition compared to vehicle [3, 11]: 71%; EC50 ([3]; Antagonist Mode, +E2): 2.59 ± 2.58 nM; Percent inhibition compared to vehicle ([4]; Agonist Mode, −E2): 62%; Efficacy (Emax) ([4]; Agonist Mode, −E2): 2.50 ± 0.03; Percent inhibition compared to vehicle ([4]; Antagonist Mode, +E2): 65%; EC50 ([4]; Agonist Mode, −E2): 4.36 ± 3.23 nM; EC50 ([4]; Antagonist Mode, +E2): 10.3 ± 2.62 nM; EC50 [4, 8]: 4.36 ± 3.23 nM; EC50 ([5]; Antagonist Mode, +E2): 1.14 ± 0.028 nM; Percent inhibition compared to vehicle ([5]; Agonist Mode, −E2): 60%; Percent inhibition compared to vehicle ([5]; Antagonist Mode, +E2): 76%
CC1=C(c2cccc(O)c2)[C@H](c2ccc(OCCN3CC(CF)C3)cc2)Oc2ccc(O)cc21 [Compound 4-23, (S)-2-(4-(2-(3-(fluoromethyl)azetidin-1-yl)ethoxy)phenyl)-3-(3-hydroxyphenyl)-4-methyl-2H-chromen-6-ol] | 0.14 ± 0.10 | 0.08 ± 0.07 | 0.446 ± 0.219 | 2.64 ± 1.86 | 62 | 1.63 ± 0.17 | 74 | 1.70 ± 0.03 | 57 | 2.94 ± 0.34 | 60 | 2.76 ± 0.50 | 53.3 ± 65.8 | 1.62 ± 0.13 | 1.87 ± 0.27 | 0.231 ± 0.104 | 2.39 ± 0.24 | 0.208 ± 0.141 | 1.78 ± 0.28 | 1.61 ± 0.34 | Percent inhibition compared to vehicle (wild-type ER-α; Agonist Mode, −E2): 86%; Percent inhibition compared to vehicle (wild-type ER-α; Antagonist Mode, +E2): 96%; EC50 [2, 8]: 11.3 ± 9.22 nM; Percent inhibition compared to vehicle [3, 9]: 49%; Percent inhibition compared to vehicle [3, 11]: 69%; EC50 ([3]; Antagonist Mode, +E2): 2.09 ± 0.425 nM; Percent inhibition compared to vehicle ([4]; Agonist Mode, −E2): 63%; Efficacy (Emax) ([4]; Agonist Mode, −E2): 2.43 ± 0.02; Percent inhibition compared to vehicle ([4]; Antagonist Mode, +E2): 62%; EC50 ([4]; Antagonist Mode, +E2): 14 ± 15.4 nM; EC50 [4, 8]: 3.76 ± 3.11 nM; EC50 ([5]; Antagonist Mode, +E2): 1.02 ± 0.163 nM; Percent inhibition compared to vehicle ([5]; Agonist Mode, −E2): 58%; Percent inhibition compared to vehicle ([5]; Antagonist Mode, +E2): 77%
C[C@]12CC[C@@H]3c4ccc(O)cc4CC[C@H]3[C@@H]1CC[C@@H]2O [17β-Estradiol] | – | – | 0.126 ± 0.233 | – | – | – | – | 6.49 ± 0.97 | – | 6.93 ± 1.50 | – | 6.83 ± 1.36 | – | 5.06 ± 0.76 | 5.66 ± 0.52 | 0.212 ± 0.401 | 5.75 ± 0.17 | 0.013 ± 0.011 | 7.36 ± 1.07 | 7.69 ± 1.94 | –
